Measured values: article PMC6272685, “Docking and Antiherpetic Activity of 2-Aminobenzo[de]-isoquinoline-1,3-diones” (Molecules, 2015)
In brackets after ≈: the same amount, converted by molar mass. Entries after “also recorded” stand apart in the source; their conditions may differ.

Assays:
[1] = tested on: HSV-1; assay: cytopathic effect inhibition assay against HSV-1 in Vero cells; assay type: cell-based, herpes simplex virus 1 (GHSV-UL46); settings: for HSV-1 EC50: Vero cells, 48 h, cytopathic effect inhibition; for antiviral activity against HSV-1 in words: in comparison with compounds 14–16; for HSV-1 SI: ratio of CC50 to EC50; for activity class in terms of SI-values (HSV-1): virus not named, agrees with HSV-1 SI of Table 2; as to activity class in terms of SI-values (HSV-1): key: inactive (SI < 2); active (SI ≥ 2)
Method: (§1) Vero cells (derived from the kidney of a normal African green monkey) were obtained from the American Type Culture Collection (ATCC, Manassas, VA, USA). The viral strains used were GHSV-UL46 for HSV-1 and the G strain for HSV-2. The Vero cells were propagated in Dulbecco’s modified Eagle’s medium (DMEM) supplemented with 10% heat-inactivated foetal bovine serum (FBS), 1% L-glutamine, HEPES buffer and 50 µg/mL gentamycin. All cells were maintained at 37 °C in a humidified atmosphere with 5% CO2 and were subcultured two times a week.
(§2) The antiviral screening was performed using a cytopathic effect inhibition assay at the Regional Center for Mycology and Biotechnology (RCMB, Al-Azhar University, Cairo, Egypt). This assay was selected to show specific inhibition of a biological function, that is, a cytopathic effect in susceptible mammalian cells. In brief, monolayers of 10,000 Vero cells adhering at the bottom of the wells in a 96-well microtiter plate were incubated for 24 h at 37 °C in a humidified incubator with 5% CO2. The plates were washed with fresh DMEM and challenged with 10^4 doses of herpes simplex 1 or 2 virus, and then the cultures were simultaneously treated with two-fold serial dilutions of the tested compound, starting from 500 µg/mL and going up to about 2 µg/mL (500, 250, 125, 62.5, …, 1.95 µg/mL) in a fresh maintenance medium; following this, they were incubated at 37 °C for 48 h. An infection control, as well as an untreated Vero cell control were made in the absence of tested compounds. […] Antiviral activity was determined by the inhibition of the cytopathic effect compared to a control, that is, the protection offered by the tested compound to the cells was scored. Three independent experiments were assessed, each containing four replicates per treatment.
(§3) After the incubation period, the media was aspirated, and then the cells were stained with a 1% crystal violet solution for 30 min. Thereafter, all excess stain was removed by rinsing the plates with tap water. The plates were allowed to dry, and then glacial acetic acid (30%) was added to all wells and mixed thoroughly. The absorbance of the plates was measured after gentle shaking on a microplate reader (Tecan Inc., Morrisville, NC, USA), at 590 nm. The viral inhibition rate was calculated as follows: [(ODtv − ODcv)/(ODcd − ODcv)] × 100% where ODtv, ODcv and ODcd indicate the absorbance of the tested compounds with virus-infected cells, the absorbance of the virus control and the absorbance of the cell control, respectively.
EC50 values were determined directly from the curve obtained by plotting the inhibition of the virus yield against the concentration of the samples. […] This index is referred to as a therapeutic index, and it was also used to determine whether a compound warranted further study.

[2] = tested on: HSV-2; assay: cytopathic effect inhibition assay against HSV-2 in Vero cells; assay type: cell-based, herpes simplex virus 2 (G strain); settings: for HSV-2 EC50: Vero cells, 48 h, cytopathic effect inhibition; for HSV-2 SI: ratio of CC50 to EC50; for antiviral activity against HSV-2 in words: in comparison with compounds 14–16; as to activity class in terms of SI-values (HSV-2): key: inactive (SI < 2); active (SI ≥ 2)
Method: as §1, §2, §3
EC50 values were determined directly from the curve obtained by plotting the inhibition of the virus yield against the concentration of the samples. The selectivity index (SI) was calculated from the ratio of CC50 to EC50 in order to determine whether each compound had sufficient antiviral activity that exceeded its level of toxicity. This index is referred to as a therapeutic index, and it was also used to determine whether a compound warranted further study.

[3] = tested on: Vero cells; assay: cytotoxicity evaluation using viability assay (crystal violet); assay type: cell-based, African green monkey; settings: 48 h
Method: as §1
The Vero cell lines in the cytotoxicity assay were seeded in 96-well plates at a cell concentration of 1 × 10^4 cells per well in 100 µL of the growth medium. Fresh medium containing different concentrations of the tested sample was added after 24 h of seeding. Serial two-fold dilutions of the tested compound were added to confluent cell monolayers dispensed into 96-well, flat-bottomed microtiter plates (Falcon, Jersey, NJ, USA) using a multichannel pipette. The microtiter plates were incubated at 37 °C in a humidified incubator with 5% CO2 for a period of 48 h. Three wells were used for each concentration of the tested sample. Control cells were incubated without test samples and with or without DMSO. The small percentage of DMSO present in the wells (maximal 0.1%) was not found to affect the experiment.
After the end of the incubation period, the viable cell yield was determined by a colorimetric method. In brief, the process of treatment the media with crystal violet solution and measurement of absorbance at 590 nm using a microplate reader was mentioned above. The absorbance was proportional to the number of surviving cells in the culture plate. All the results were corrected for background absorbance detected in wells without added stain. Treated samples were compared with the cell control in the absence of the tested compounds. All experiments were carried out in triplicate. The cell cytotoxicity effect of each tested compound was calculated.
Statistics were done using a one-way ANOVA test, and the percentage cell viability was calculated using Microsoft Excel®, as follows: % Cell viability = [(Mean Abscontrol− Mean Abstest metabolite)/Mean Abscontrol] × 100 where Abs equals the absorbance at 590 nm. The CC50 was estimated from graphic plots and the STATA statistical analysis package was used for the drawing of the dose response curve, in order to calculate CC50. Concerning antiviral evaluation, all experiments and data analysis were performed in RCMB, Al-Azhar University, Cairo, Egypt.

Structure (SMILES) | HSV-1 EC50 [1] [µg/mL] | antiviral activity against HSV-1 in words [1] | HSV-1 SI [1] | activity class in terms of SI-values (HSV-1) [1] | activity class in terms of SI-values (HSV-2) [2] | HSV-2 EC50 [2] [µg/mL] | HSV-2 SI [2] | CC50 [3] [µg/mL] | antiviral activity against HSV-2 in words [2]
COc1cc(C=NN2C(=O)c3cccc4cccc(c34)C2=O)ccc1O [Compound 9] | 78.3 ± 1.5 | good antiviral effect | 3.0 | active | active | 108 ± 4.1 | 2.2 | 236 ± 8 (≈ 681 µM) | –
O=C1c2cccc3cccc(c23)C(=O)N1n1c(=O)c2cc3c(=O)oc(=O)c3cc2c1=O [Compound 23] | 176 ± 2.4 | low activity | 2.3 | – | – | >500 | – | 412 ± 18 (≈ 999 µM) | –
O=C1c2cccc3cccc(c23)C(=O)N1N=Cc1ccc(Cl)cc1Cl [Compound 11] | >500 | – | – | – | – | >500 | – | 316 ± 24 (≈ 856 µM) | –
COc1ccc(C=NN2C(=O)c3cccc4cccc(c34)C2=O)c(OC)c1 [Compound 10] | 149 ± 5.3 | low activity | 2.6 | active | – | 416 ± 8.2 | 0.9 | 380 ± 16 (≈ 1050 µM) | low activity
CCC=NN1C(=O)c2cccc3cccc(c23)C1=O [Compound 2] | >500 | – | – | – | – | >500 | – | 317 ± 13 (≈ 1260 µM) | –
O=C1c2cccc3cccc(c23)C(=O)N1NC(=S)Nc1ccccc1 [Compound 17] | 236 ± 4.9 | low activity | 2.2 | active | – | >500 | – | 518 ± 34 (≈ 1490 µM) | –
O=C1CCC(=O)N1N1C(=O)c2cccc3cccc(c23)C1=O [Compound 19] | >500 | – | – | – | – | >500 | – | 220 ± 16 (≈ 748 µM) | –
O=C1c2cccc3cccc(c23)C(=O)N1N1C(=O)c2cccc3cccc(c23)C1=O [Compound 22] | 74.6 ± 3.4 | good antiviral effect | 7.5 | – | – | 428 ± 10.2 | 1.3 | 560 ± 46 (≈ 1430 µM) | –
O=C1c2cccc3cccc(c23)C(=O)N1N=Cc1ccc(O)cc1 [Compound 7] | 113 ± 4.6 | good antiviral effect | 3.6 | active | – | 220 ± 3.8 | 1.9 | 412 ± 24 (≈ 1300 µM) | low activity
COc1cccc(C=NN2C(=O)c3cccc4cccc(c34)C2=O)c1 [Compound 5] | 176 ± 4.6 | low activity | 2.6 | active | – | >500 | – | 452 ± 9 (≈ 1370 µM) | –
O=C1C=CC(=O)N1N1C(=O)c2cccc3cccc(c23)C1=O [Compound 20] | >500 | – | – | – | – | >500 | – | 220 ± 16 (≈ 753 µM) | –
O=C1c2cccc3cccc(c23)C(=O)N1n1c(=O)c2cc3c(=O)n(N4C(=O)c5cccc6cccc(c56)C4=O)c(=O)c3cc2c1=O [Compound 24] | >500 | – | – | – | – | >500 | – | 386 ± 17 (≈ 636 µM) | –
C=CCNC(=S)NN1C(=O)c2cccc3cccc(c23)C1=O [Compound 16] | 17.8 ± 1.4 | highest effects | 5.4 | active | – | 292 ± 4.8 | 0.3 | 96 ± 12 (≈ 308 µM) | –
O=C1c2cccc3cccc(c23)C(=O)N1N=Cc1ccccc1 [Compound 3] | 158 ± 1.8 | – | 1.2 | – | – | >500 | – | 196 ± 22 (≈ 653 µM) | –
COc1ccccc1C=NN1C(=O)c2cccc3cccc(c23)C1=O [Compound 4] | 189 ± 3.2 | – | 2.6 | active | – | 312 ± 9.6 | 1.6 | 486 ± 18 (≈ 1470 µM) | low activity
CN(C)c1ccc(C=NN2C(=O)c3cccc4cccc(c34)C2=O)cc1 [Compound 8] | >500 | – | – | – | – | >500 | – | 289 ± 13 (≈ 842 µM) | –
O=C1c2cccc3cccc(c23)C(=O)N1NC(=S)NC1CCCCC1 [Compound 18] | 319 ± 3.7 | low activity | 1.5 | – | – | >500 | – | 482 ± 14 (≈ 1360 µM) | –
O=C1c2cccc3cccc(c23)C(=O)N1N=Cc1ccsc1 [Compound 15] | 16.2 ± 1.1 | most active; also recorded: highest effects | 11.1 | – | active | 56.7 ± 2.6 | 3.2 | 180 ± 8 (≈ 588 µM) | –
O=C1c2cccc3cccc(c23)C(=O)N1N=Cc1cccnc1 [Compound 13] | 117.2 ± 3.1 | – | 3.9 | active | – | 308 ± 7.1 | 1.5 | 458 ± 27 (≈ 1520 µM) | low activity
O=C1c2cccc3cccc(c23)C(=O)N1N=Cc1cccc([N+](=O)[O-])c1 [Compound 6] | 174 ± 1.8 | low activity | 1.8 | – | – | >500 | – | 316 ± 11 (≈ 915 µM) | –
O=C1c2ccccc2C(=O)N1N1C(=O)c2cccc3cccc(c23)C1=O [Compound 21] | 102 ± 5.8 | good antiviral effect | 4.8 | – | – | 374 ± 3.7 | 1.3 | 490 ± 21 (≈ 1430 µM) | low activity
CC=NN1C(=O)c2cccc3cccc(c23)C1=O [Compound 1] | >500 | – | – | – | – | >500 | – | 375 ± 25 (≈ 1570 µM) | –
O=C1c2cccc3cccc(c23)C(=O)N1N=Cc1ccco1 [Compound 14] | 19.6 ± 0.9 | most active; also recorded: highest effects | 16.4 | – | active | 71.8 ± 1.8 | 4.5 | 321 ± 23 (≈ 1110 µM) | –
